This passage reports IC50 and JAK2/JAK1 results from patent publication US10519163B2, “Pyrrolopyrimidine derivatives as TAM inhibitors” (Incyte Corporation, priority 2015, dated 2019).

Molecules are shown by their SMILES. A value given as a limit tells only on which side of the number the result lay.

For one assay, the target named is phosphor-Axl (Homo sapiens (Human), UniProt P30530). Nature of the assay: TAM Kinase Assay (HTRF), phosphor-Axl.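 Note: test enzyme was recombinant Axl protein, pre-activated by autophosphorylation with ATP and MgCl2.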 The following applies: 5.1 nM phosphor-Axl, HTRF, 60 min room temperature; read-out: Phospho-Axl IC50. It is filed as biochemical. In general terms: TR-FRET usually uses a lanthanide donor and a delayed reading to cut background.
For a further assay, the target named is Tyro3 (Homo sapiens (Human), UniProt Q06418). The assay can be described thus: TAM Kinase Assay (HTRF), Tyro3. It is filed as biochemical. The following applies: 0.366 nM Tyro3, HTRF, 60 min room temperature; read-out: Tyro3IC50.
Tyro3, sequence (Q06418 41-890): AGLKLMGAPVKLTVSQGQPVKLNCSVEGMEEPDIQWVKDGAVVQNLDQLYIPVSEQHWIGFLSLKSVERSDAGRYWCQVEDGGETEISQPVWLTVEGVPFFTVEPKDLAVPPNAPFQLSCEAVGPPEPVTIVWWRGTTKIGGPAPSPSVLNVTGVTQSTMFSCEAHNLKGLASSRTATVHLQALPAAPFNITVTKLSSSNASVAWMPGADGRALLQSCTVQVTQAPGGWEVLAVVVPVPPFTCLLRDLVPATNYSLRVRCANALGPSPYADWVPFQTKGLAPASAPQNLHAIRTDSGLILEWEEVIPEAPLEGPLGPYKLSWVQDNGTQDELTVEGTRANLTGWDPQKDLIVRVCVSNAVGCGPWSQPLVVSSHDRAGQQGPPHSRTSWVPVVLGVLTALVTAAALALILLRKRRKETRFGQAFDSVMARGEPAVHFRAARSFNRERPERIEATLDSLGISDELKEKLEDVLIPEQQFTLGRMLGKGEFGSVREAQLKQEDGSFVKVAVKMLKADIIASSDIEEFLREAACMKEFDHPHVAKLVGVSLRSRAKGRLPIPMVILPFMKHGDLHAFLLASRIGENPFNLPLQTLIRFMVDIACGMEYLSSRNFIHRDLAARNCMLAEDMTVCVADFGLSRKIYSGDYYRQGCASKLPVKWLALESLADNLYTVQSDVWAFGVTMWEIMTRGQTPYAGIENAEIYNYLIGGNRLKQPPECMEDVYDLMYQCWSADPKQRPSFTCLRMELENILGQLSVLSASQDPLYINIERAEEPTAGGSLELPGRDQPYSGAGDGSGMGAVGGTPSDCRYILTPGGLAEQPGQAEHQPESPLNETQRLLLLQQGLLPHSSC
In a further assay the target is JAK1 (Homo sapiens (Human), UniProt P23458). The following applies: cited from earlier work.
JAK1, sequence (P23458 whole entry, species assumed): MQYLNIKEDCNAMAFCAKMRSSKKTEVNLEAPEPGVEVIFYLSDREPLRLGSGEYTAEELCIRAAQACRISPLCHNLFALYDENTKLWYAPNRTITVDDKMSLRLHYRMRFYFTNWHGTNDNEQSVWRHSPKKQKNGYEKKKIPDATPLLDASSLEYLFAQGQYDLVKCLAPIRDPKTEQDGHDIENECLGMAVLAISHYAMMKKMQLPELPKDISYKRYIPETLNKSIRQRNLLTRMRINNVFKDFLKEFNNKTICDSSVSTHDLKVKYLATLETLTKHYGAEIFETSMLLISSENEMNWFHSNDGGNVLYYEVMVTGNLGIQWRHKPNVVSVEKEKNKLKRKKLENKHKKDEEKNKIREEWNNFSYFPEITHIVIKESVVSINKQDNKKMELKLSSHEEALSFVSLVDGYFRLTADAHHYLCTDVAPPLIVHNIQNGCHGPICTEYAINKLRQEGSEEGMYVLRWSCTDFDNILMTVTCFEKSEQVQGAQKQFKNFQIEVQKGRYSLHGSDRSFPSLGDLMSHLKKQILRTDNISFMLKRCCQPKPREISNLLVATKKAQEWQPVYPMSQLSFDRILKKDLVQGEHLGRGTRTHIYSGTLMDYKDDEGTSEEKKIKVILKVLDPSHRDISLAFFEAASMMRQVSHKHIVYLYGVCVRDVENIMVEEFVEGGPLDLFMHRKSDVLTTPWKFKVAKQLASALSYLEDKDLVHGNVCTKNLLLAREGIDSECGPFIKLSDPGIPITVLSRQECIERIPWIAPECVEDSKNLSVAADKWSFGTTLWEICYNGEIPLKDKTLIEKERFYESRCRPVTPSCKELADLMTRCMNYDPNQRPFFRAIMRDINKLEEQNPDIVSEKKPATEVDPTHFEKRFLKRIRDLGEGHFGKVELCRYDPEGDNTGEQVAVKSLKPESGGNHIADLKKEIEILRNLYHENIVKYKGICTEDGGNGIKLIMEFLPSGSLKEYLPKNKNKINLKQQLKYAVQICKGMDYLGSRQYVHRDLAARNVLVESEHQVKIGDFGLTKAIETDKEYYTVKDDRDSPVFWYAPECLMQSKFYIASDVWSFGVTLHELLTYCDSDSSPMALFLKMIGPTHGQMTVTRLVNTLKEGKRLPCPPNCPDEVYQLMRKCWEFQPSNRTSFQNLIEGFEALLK
The next assay deals with JAK2 (Homo sapiens (Human), UniProt O60674). The following applies: selectivity ratio, IC50 at 1 mM ATP; cited from earlier work.
JAK2, sequence (O60674 whole entry, species assumed): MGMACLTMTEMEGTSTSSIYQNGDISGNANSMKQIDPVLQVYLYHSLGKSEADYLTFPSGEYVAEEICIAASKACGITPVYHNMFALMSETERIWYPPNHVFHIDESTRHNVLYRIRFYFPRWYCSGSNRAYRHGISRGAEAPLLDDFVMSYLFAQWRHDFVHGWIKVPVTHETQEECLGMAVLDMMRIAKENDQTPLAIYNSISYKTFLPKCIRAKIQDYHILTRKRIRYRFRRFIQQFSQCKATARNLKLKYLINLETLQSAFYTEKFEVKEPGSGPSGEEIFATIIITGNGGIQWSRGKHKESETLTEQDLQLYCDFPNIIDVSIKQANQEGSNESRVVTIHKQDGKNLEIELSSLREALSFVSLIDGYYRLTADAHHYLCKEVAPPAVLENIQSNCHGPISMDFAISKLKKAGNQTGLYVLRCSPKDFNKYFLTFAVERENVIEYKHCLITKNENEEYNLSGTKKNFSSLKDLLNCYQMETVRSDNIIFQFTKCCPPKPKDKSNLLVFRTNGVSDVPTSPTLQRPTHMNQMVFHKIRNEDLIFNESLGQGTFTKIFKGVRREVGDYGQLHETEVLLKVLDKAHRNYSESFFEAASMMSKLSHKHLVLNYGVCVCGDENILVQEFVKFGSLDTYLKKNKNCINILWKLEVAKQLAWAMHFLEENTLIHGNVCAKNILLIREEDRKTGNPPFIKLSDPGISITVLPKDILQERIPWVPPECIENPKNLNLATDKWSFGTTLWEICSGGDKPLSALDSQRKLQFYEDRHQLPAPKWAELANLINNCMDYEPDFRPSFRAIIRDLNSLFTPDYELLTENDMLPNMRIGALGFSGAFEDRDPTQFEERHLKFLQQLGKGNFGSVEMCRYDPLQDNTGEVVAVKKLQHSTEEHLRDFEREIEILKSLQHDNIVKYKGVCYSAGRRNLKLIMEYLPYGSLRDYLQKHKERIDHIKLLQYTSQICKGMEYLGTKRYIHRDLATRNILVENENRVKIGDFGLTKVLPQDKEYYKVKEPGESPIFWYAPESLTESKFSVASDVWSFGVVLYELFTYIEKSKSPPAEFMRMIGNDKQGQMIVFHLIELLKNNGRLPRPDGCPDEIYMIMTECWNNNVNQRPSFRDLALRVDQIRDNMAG
The target of the next assay is PI3Kδ (Homo sapiens (Human), UniProt O00329). The following applies: cited from earlier work.
PI3Kδ, sequence (O00329 whole entry, looked up, species assumed): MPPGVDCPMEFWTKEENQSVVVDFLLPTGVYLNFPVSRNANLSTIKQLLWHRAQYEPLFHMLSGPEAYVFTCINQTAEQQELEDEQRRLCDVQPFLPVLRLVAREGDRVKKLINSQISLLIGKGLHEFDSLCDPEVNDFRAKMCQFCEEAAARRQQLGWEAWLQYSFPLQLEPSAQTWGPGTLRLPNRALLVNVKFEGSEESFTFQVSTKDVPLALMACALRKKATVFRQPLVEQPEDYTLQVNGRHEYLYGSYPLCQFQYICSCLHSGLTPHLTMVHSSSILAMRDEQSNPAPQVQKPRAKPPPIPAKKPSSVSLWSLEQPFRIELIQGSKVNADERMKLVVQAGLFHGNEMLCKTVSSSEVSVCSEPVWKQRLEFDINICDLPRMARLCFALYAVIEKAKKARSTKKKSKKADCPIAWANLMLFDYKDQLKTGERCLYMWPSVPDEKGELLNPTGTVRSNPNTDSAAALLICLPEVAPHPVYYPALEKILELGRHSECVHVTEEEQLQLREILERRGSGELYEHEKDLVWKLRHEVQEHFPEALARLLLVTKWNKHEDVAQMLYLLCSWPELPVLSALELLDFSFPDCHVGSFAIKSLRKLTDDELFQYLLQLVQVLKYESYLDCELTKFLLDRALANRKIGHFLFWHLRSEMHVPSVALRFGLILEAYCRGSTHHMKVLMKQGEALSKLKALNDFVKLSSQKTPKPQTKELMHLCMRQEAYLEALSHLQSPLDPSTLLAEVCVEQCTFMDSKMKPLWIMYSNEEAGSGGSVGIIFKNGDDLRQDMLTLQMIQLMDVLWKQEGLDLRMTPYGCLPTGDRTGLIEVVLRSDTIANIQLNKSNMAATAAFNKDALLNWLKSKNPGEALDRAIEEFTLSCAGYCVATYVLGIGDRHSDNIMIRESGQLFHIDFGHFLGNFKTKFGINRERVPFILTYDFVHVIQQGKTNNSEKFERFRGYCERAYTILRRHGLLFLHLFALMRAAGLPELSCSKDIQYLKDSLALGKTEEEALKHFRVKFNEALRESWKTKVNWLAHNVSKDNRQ
PI3Kδ, sequence (P27986 whole entry partner, looked up, species assumed): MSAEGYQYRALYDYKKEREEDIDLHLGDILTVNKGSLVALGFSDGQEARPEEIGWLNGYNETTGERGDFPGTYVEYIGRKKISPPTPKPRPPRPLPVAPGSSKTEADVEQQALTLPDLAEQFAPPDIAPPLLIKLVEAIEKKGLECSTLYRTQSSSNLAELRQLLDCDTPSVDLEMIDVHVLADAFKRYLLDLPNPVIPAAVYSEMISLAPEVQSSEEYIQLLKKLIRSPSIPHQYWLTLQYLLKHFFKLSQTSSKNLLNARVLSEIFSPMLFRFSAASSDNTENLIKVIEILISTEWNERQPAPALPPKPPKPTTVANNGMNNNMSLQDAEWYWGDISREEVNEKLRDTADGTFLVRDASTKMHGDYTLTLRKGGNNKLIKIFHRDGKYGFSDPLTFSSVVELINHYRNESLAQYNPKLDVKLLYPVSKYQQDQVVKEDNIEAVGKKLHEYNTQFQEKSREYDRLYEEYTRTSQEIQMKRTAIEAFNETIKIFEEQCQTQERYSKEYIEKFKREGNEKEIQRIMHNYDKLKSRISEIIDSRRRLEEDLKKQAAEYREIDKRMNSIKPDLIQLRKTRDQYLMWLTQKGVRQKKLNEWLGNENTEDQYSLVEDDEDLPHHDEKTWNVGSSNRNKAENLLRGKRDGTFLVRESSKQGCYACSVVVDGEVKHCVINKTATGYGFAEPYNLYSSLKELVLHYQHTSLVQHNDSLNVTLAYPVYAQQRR

Procedure for Tyro3: (§1) 0.1 ul test compounds dissolved in DMSO were transferred from compound plates to white 384-well assay plates (Greiner [sequence] plates). […] The plate was protected from light and incubated at room temperature for 60 min.
Procedure for phosphor-Axl: Autophosphorylation of Axl was carried out by incubating the recombinant Axl protein (Life Technologies, PV4275) in buffer containing 50 mM Tris, pH7.5, 0.2 mg/ml Axl, 5 mM ATP, 20 mM MgCl2 and 2 mM DTT at room temperature for 1 hour.
as §1

Take `O=C(NCC1(c2cccc(-c3ncnc4[nH]ccc34)c2)Cc2ccccc2C1)C1CCC1` [Example 26, N-({2-[3-(7H-Pyrrolo[2,3-d]pyrimidin-4-yl)phenyl]-2,3-dihydro-1H-inden-2-yl}methyl)cyclobutanecarboxamide]: the IC50 on phosphor-Axl is less than 500 nM; at Tyro3 it was greater than 3000 nM; at JAK1 it was less than 10 nM. Besides, the JAK2/JAK1 on JAK2 was greater than 10.

`O=C(NCC1(c2cccc(-c3ncnc4[nH]ccc34)c2)Cc2ccccc2C1)c1ccco1` [Example 34, N-({2-[3-(7H-Pyrrolo[2,3-d]pyrimidin-4-yl)phenyl]-2,3-dihydro-1H-inden-2-yl}methyl)-2-furamide]: the IC50 was greater than 3000 nM at Tyro3 and 50 to 100 nM on PI3Kδ.
